# Reference: patent publication US12018011B2, “Macrocyclic compounds and compositions, and methods of preparing and using the same” (Kura Oncology, Inc., priority 2021, dated 2024)
# Where two headings read alike, the source gives them in different places.
# How the values were obtained:
# [1] = target: T1, Recombinant human farnesyl transferase (FTase) (Homo sapiens, UniProt P49356); assay: FTase fluorescence assay (farnesylation of dansyl-GCVLS peptide); assay type: biochemical; conditions: recombinant human FTase 2.5 nM, Dansyl-GCVLS 85 nM, FPP 30 nM, 30° C., 50 minutes
# T1 construct: purchased Crelux (Martinsried, Germany)
# [2] = ether bond
# [3] = ether bond; 13-membered ring; SOCl2; then Cs2CO3; DMF; 122.7 mM; 70.0 °C; 2 steps
# [4] = Metabolic stability in human liver microsomes; assay type: in vitro ADME; conditions: human liver microsomes 0.5 mg protein/mL, test compound 1 μM, 37° C.; read-out: T1/2 in HLM
# Description: (§1) The metabolic stability of the compounds disclosed herein was determined by measuring half-life (T1/2) of the compounds in the presence of mouse liver microsomes (MLM) or human liver microsomes (BILM).
# (§2) Intermediate solution: 5 μL of compound and control stock solution (10 mM in dimethyl sulfoxide (DMSO)) were diluted with 495 μL of acetonitrile (ACN) (intermediate solution concentration: 100 μM, 99% ACN).
# (§3) Working solution: 50 μL of compound and control intermediate solution (100 μM) were diluted with 450 μL of 100 mM potassium phosphate buffer (working solution concentration: 10 μM, 9.9% ACN).
# (§4) Controls used in this assay: Testosterone, Diclofenac, and Propafenone.
# (§5) Preparation Procedure: The appropriate amount of NADPH powder was weighed and diluted into a 10 mM MgCl2 solution (working solution concentration: 10 unit/mL; final concentration in reaction system: 1 unit/mL).
# (§6) The appropriate concentrations of microsome working solutions were prepared in 100 mM potassium phosphate buffer.
# (§7) Cold (4° C.) acetonitrile (CAN) containing 200 ng/mL tolbutamide and 200 ng/mL labetalol as internal standards (IS) was used as the stop solution.
# (§8) Using an Apricot automation workstation, 10 μL/well of compound working solution were added to all 96-well reaction plates except the blank (T0, T5, T10, T20, T30, T60, and NCF60).
# (§9) An Apricot automation workstation was used to add 80 μL/well of microsome solution to all reaction plates (Blank, T0, T5, T10, T20, T30, T60, and NCF60).
# (§10) All reaction plates containing mixtures of compound and microsomes were pre-incubated at 37° C. for 10 minutes.
# (§11) An Apricot automation workstation was used to add 10 μL/well of 100 mM potassium phosphate buffer to reaction plate NCF60.
# (§12) Reaction plate NCF60 was incubated at 37° C. for 60 minutes.
# (§13) After pre-incubation, an Apricot automation workstation was used to add 10 μL/well of NADPH regenerating system to every reaction plate except NCF60 (Blank, T0, T5, T10, T20, T30, and T60) to start the reaction. Final concentration of each component in incubation medium: Microsome (0.5 mg protein/mL); Test Compound (1 μM); Control Compound (1 μM); Acetonitrile (0.99%); DMSO (0.01%).
# (§14) The reaction plates were incubated at 37° C. for 0 minute (T0, stop solution was added prior to microsome and NADPH solutions), 5 minutes (T5), 10 minutes (T10), 20 minutes (T20), 30 minutes (T30), 60 minutes (T60).
# (§15) An Apricot automation workstation was used to add 300 μL/well of stop solution to each reaction plate at its appropriate end time point to terminate the reaction.
# (§16) Each plate was sealed and shaken for 10 minutes.
# (§17) After shaking, each plate was centrifuged at 4000 rpm and 4° C. for 20 minutes.
# (§18) During centrifugation, an Apricot automation workstation was used to add 300 µL/well of HPLC grade water to eight new 96-well plates.
# (§19) After centrifugation, an Apricot automation workstation was used to transfer 100 μL of supernatant from each reaction plate to its corresponding bioanaylsis plate.
# (§20) Each bioanalysis plate was sealed and shaken for 10 minutes prior to LC-MS/MS analysis.
# (§21) The equation of first order kinetics was used to calculate T1/2 and CLint(mic) (μL/min/mg).
# [5] = test system: T24/83 cells; assay: T24/83 cell proliferation assay (CellTiter-Glo); assay type: cell-based; conditions: Homo sapiens, 96 h, 4 days
# Outline: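 HRAS-mutant T24/83 bladder carcinoma cells seeded at 100 cells/well and grown with inhibitor for 4 days at 37 °C; 0.7% DMSO negative control, 100 μM tipifarnib positive control. Viability by CellTiter-Glo luminescence.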
# [6] = target: T2, geranylgeranyl transferase type-1 (GGTase) (Homo sapiens, UniProt P53609); assay: GGTase fluorescence assay (dansyl-GCVLL peptide, GGPP); assay type: biochemical; conditions: GGTase 25 nM, Dansyl-GCVLL 10 μM, GGPP 10 μM, 30° C., 120 minutes
# T2 construct: purchased Crelux (Martinsried, Germany)
# Source text: T24/83 cell line was purchased from the European Collection of Authenticated Cell Cultures (Salisbury, UK). Recombinant human farnesyl transferase (FTase) and geranylgeranyl transferase type-1 (GGTase) were obtained from Crelux (Martinsried, Germany). Dansyl labelled GCVLS peptide was purchased from Bachem (Torrance, CA), and Dansyl labelled GCVLL peptide was purchased from Bio Synthesis (Lewisville, TX). Farnesyl Pyrophosphate (FPP) and Geranylgeranyl pyrophosphate (GGPP) were purchased from Cayman (Ann Arbor, MI).
# Geranylgeranyl transferase (GGTase) is a closely related enzyme to farnesyl transferase (FTase). The two enzymes share a common regulatory chain but have distinct individual enzymatic domains. GGTase catalyses the addition of an alternative prenylated side chain to some of the same proteins that may also be farnesylated. Thus, selective inhibitory activity against FTase relative to GGTase is a critical characteristic for FTase inhibitors.
# The IC50 value of the compounds disclosed herein as inhibitors of Ftase and/or GGTase, was determined by measuring the concentration (provided in nM) necessary to achieve inhibition of enzyme activity by 50% (IC50). […] Compounds having a low IC50 value against FTase, for example an IC50 (FTase)<100 nM, such as an IC50 (FTase)<10 nM, are preferred. Compounds having a low IC50 value against FTase and a high IC50 value against GGTase, for example an IC50 (FTase)<100 nM, such as an IC50 (FTase)<10 nM, and an IC50 (GGTase)>100 nM, are potent and selective inhibitors of FTase, and are particularly preferred.
# The inhibition activities of the compounds disclosed herein against Ftase and GGTase were measured in the respective fluorescence assays as follows:
# For the GGTase assay, GGTase (25 nM), Dansyl labelled GCVLL peptide (10 μM), GGPP (10 μM) and inhibitor were mixed in assay buffer (50 mM Tris, pH 7.5, 10 mM magnesium chloride, 10 μM zinc chloride, 0.08% CHAPS, 5 mM dithiothreitol) and incubated in a total volume of 20 μL at 30° C. for 120 minutes.
# For both the FTase assay and GGTase assay, fluorescence intensity was detected (excitation at 340 nm and emission at 486 nm) using EnVision (PerkinElmer; Waltham, MA), IC50 determinations were performed using a sigmoidal dose-response model with Xlfit software (IDBS, Inc.; Boston, MA), and tipifarnib was used as a positive control. All the assay plates for each assay passed the QC criteria (S/B, Z factor).
# [7] = Metabolic stability in mouse liver microsomes; assay type: in vitro ADME; conditions: CD-1 mouse liver microsomes 0.5 mg protein/mL, test compound 1 μM, 37° C.; read-out: T1/2 in MLM
# Description: as §1, §2, §3, §4, §5, §6, §7, §8, §9, §10, §11, §12, §13, §14, §15, §16, §17, §18, §19, §20, §21
Compound,IC50 [1],half-life at 1 μM [4],IC50 [5],IC50 [6],half-life at 1 μM [7],also measured
"4^4-bromo-2^2-methoxy-3-(1-methyl-1H-imidazol-5-yl)-6-oxa-2(4,6)-quinolina-1,4(1,3)-dibenzenacyclohexaphan-3-ol",–,–,–,–,–,"ring closure, crude yield [3]: 84.8%"
"[2H]C([2H])([2H])n1c(=O)cc2c3cc(ccc31)[C@@](N)(c1cncn1C)c1ccc(Cl)c(c1)COc1cccc-2c1 [(S)-47, (S)-3-amino-4^4-chloro-2^1-(methyl-d3)-3-(1-methyl-1H-imidazol-5-yl)-2^1,2^2-dihydro-6-oxa-2(4,6)-quinolina-1,4(1,3)-dibenzenacyclohexaphan-2^2-one]",≤ 10 nM,> 100 min,≤ 50 nM,> 1000 nM,5 to 15 min,–
"[2H]C([2H])([2H])n1c(=O)cc2c3cc(ccc31)[C@@](N)(c1cncn1C)c1ccc(C#N)c(c1)OCc1cccc-2c1 [(S)-20, (S)-3-amino-2^1-(methyl-d3)-3-(1-methyl-1H-imidazol-5-yl)-2^2-oxo-2^1,2^2-dihydro-5-oxa-2(4,6)-quinolina-1,4(1,3)-dibenzenacyclohexaphane-4^4-carbonitrile]",≤ 10 nM,> 100 min,≤ 50 nM,> 1000 nM,> 15 min,–
"Cn1cncc1[C@@]1(N)c2ccc(C#N)c(c2)COc2cccc(c2)-c2cc(C#N)nc3ccc1cc23 [(S)-58, (S)-3-amino-3-(1-methyl-1H-imidazol-5-yl)-6-oxa-2(4,6)-quinolina-1,4(1,3)-dibenzenacyclohexaphane-2^2 4^4-dicarbonitrile]",≤ 10 nM,> 100 min,≤ 50 nM,> 1000 nM,> 15 min,–
"Cn1cncc1[C@@]1(O)c2ccc(C#N)c(c2)CCc2cccc(c2)-c2cc(=O)n(C)c3ccc1cc23 [(R)-6, (R)-3-hydroxy-2^1-methyl-3-(1-methyl-1H-imidazol-5-yl)-2^2-oxo-2^1,2^2-dihydro-2(4,6)-quinolina-1,4(1,3)-dibenzenacyclohexaphane-4^4-carbonitrile]",≤ 10 nM,< 30 min,≤ 50 nM,> 1000 nM,5 to 15 min,–

# Further lines, with some results ahead:
IC50 [1],half-life at 1 μM [4],IC50 [5],IC50 [6],half-life at 1 μM [7],Compound,also measured
> 100 nM,–,–,–,–,"COc1cc2c3cc(ccc3n1)C(O)(c1cncn1C)c1cnc(Cl)c(c1)COc1cccc-2c1 (centres unmarked) [Compound 59, 4^6-chloro-2^2-methoxy-3-(1-methyl-1H-imidazol-5-yl)-6-oxa-2(4,6)-quinolina-4(3,5)-pyridina-1(1,3)-benzenacyclohexaphan-3-ol]","ring closure, yield of all isomers ([2]; from COc1cc(-c2cccc(O)c2)c2cc(C(O)(c3cnc(Cl)c(CO)c3)c3cncn3C)ccc2n1, SOCl2 then Cs2CO3, DMF, 64.5 mM, 70.0 °C, 1.0 h, 2 steps): 95.6%"
10 to 100 nM,–,–,–,–,"COc1cc2c3cc(ccc3n1)C(O)(c1cncn1C)c1ccc(Br)c(c1)COc1cccc-2c1 (centres unmarked) [Compound 52, 4^4-bromo-2^2-methoxy-3-(1-methyl-1H-imidazol-5-yl)-6-oxa-2(4,6)-quinolina-1,4(1,3)-dibenzenacyclohexaphan-3-ol]","ring closure, yield of all isomers ([2]; from COc1cc(-c2cccc(O)c2)c2cc(C(O)(c3ccc(Br)c(CO)c3)c3cncn3C)ccc2n1, Cs2CO3, DMF, 122.7 mM, 70.0 °C, 0.5 h, 2 steps): 84.8%"
> 100 nM,–,–,–,–,"Cn1cncc1C1(O)c2ccc(Br)c(c2)COc2cccc(c2)-c2cc(Cl)nc3ccc1cc23 (centres unmarked) [Compound 71, 4^4-bromo-2^2-chloro-3-(1-methyl-1H-imidazol-5-yl)-6-oxa-2(4,6)-quinolina-1,4(1,3)-dibenzenacyclohexaphan-3-ol]","ring closure, yield of all isomers ([2]; from Cn1cncc1C(O)(c1ccc(Br)c(CO)c1)c1ccc2nc(Cl)cc(-c3cccc(O)c3)c2c1, Cs2CO3, DMF, 116.2 mM, 70.0 °C, 2.0 h, 2 steps): 84%"
≤ 10 nM,< 30 min,≤ 50 nM,> 1000 nM,5 to 15 min,"Cn1cncc1[C@@]1(N)c2ccc(C#N)c(c2)CCc2cccc(c2)-c2cc(=O)n(C)c3ccc1cc23 [(R)-7, (R)-3-amino-2^1-methyl-3-(1-methyl-1H-imidazol-5-yl)-2^2-oxo-2^1,2^2-dihydro-2(4,6)-quinolina-1,4(1,3)-dibenzenacyclohexaphane-4^4-carbonitrile]",–
> 100 nM,–,–,–,–,"COc1cc2c3cc(ccc3n1)C(O)(c1nncn1C)c1ccc(Cl)c(c1)COc1cccc-2c1 (centres unmarked) [Compound 49, 4^4-chloro-2^2-methoxy-3-(4-methyl-4H-1,2,4-triazol-3-yl)-6-oxa-2(4,6)-quinolina-1,4(1,3)-dibenzenacyclohexaphan-3-ol]","ring closure, yield of all isomers ([2]; from COc1cc(-c2cccc(O)c2)c2cc(C(O)(c3ccc(Cl)c(CCl)c3)c3nncn3C)ccc2n1, K2CO3, DMF, 29.8 mM, 55.0 °C, 12.0 h): 19%"
≤ 10 nM,< 30 min,50 to 500 nM,> 1000 nM,5 to 15 min,"[2H]C([2H])([2H])n1c(=O)cc2c3cc(ccc31)[C@@](N)(c1nncn1C)c1ccc(Cl)c(c1)OCCc1cccc-2c1 [(S)-34, (S)-3-amino-4^4-chloro-2^1-(methyl-d3)-3-(4-methyl-4H-1,2,4-triazol-3-yl)-2^1,2^2-dihydro-5-oxa-2(4,6)-quinolina-1,4(1,3)-dibenzenacycloheptaphan-2^2-one]",–
10 to 100 nM,–,–,–,–,"COc1cc2c3cc(ccc3n1)C(O)(c1cncn1C)c1ccc(Cl)c(c1)COc1cccc-2c1 (centres unmarked) [Compound 43, 4^4-chloro-2^2-methoxy-3-(1-methyl-1H-imidazol-5-yl)-6-oxa-2(4,6)-quinolina-1,4(1,3)-dibenzenacyclohexaphan-3-ol]","ring closure, yield of all isomers ([2]; from COc1cc(-c2cccc(O)c2)c2cc(C(O)(c3ccc(Cl)c(CO)c3)c3cncn3C)ccc2n1, Cs2CO3, THF, 9.5 mM, 105.0 °C, 10.0 h, 2 steps): 82.9%"
